# Measured values published in patent publication US10738028B2, “Spiro three-membered ring, spiro five-membered ring peptide deformylase inhibitor and use thereof in antibacteria and anti-tumor” (priority 2016, dated 2020).
# Tests used:
# Assay type in all cases: cell-based
# [1] = test system: methicillin-resistant Staphylococcus aureus (MRSA); test: MIC, two-fold agar dilution (CLSI), clinical isolates
# In short: (§1)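 Susceptibility was tested using CLSI two-fold agar dilution against the strains examined.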
# [2] = test system: Escherichia coli (including ESBLs, non-ESBLs); test: as above
# In short: as §1
# [3] = test system: Enterococcus faecium (EFM); test: as above
# In short: as §1
# [4] = test system: Moraxella catarrhalis (BCA); test: as above
# In short: as §1
# [5] = test system: Enterococcus faecalis (EFA); test: as above
# In short: as §1
# [6] = test system: methicillin-sensitive Staphylococcus aureus (MSSA); test: as above
# In short: as §1
# [7] = test system: Streptococcus pneoumoniae (SPN); test: as above
# In short: as §1
# [8] = test system: methicillin-resistant Staphylococcus epidermidis (MRSE); test: as above
# In short: as §1
# [9] = test system: methicillin-sensitive Staphylococcus epidermidis (MSSE); test: as above
# In short: as §1
# [10] = test system: HCT-116 colorectal cancer cell line; test: CCK-8 proliferation inhibition; conditions: Homo sapiens, HCT-116, 72 h, concentration of 30 μM; 72 hours; CCK-8; read-out: HCT116 inhibition rate/%
# In short: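 2000 cells/well, McCoy's 5A + 10% newborn bovine serum; overnight attach, 37° C./5% CO2. Cpd from DMSO stock diluted in medium, 72 h. Readout: CCK-8 (1:10). Ctrl 1‰ DMSO.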
compound,measurement,setting,value
CCCC[C@H](CC(=O)NO)C(=O)N1CC2(CC2)C[C@H]1C(=O)Nc1cnccn1 [Example 44],"Anti-bacterial activity (MIC), strain MRSA 15-1",[1]; clinical isolate MRSA 15-1,0.5 µg/mL
same,"Anti-bacterial activity (MIC), strain MRSA 15-2",[1]; clinical isolate MRSA 15-2,1 µg/mL
same,"Anti-bacterial activity (MIC), strain MRSA 15-3",[1]; clinical isolate MRSA 15-3,1 µg/mL
same,"Anti-bacterial activity (MIC), strain MRSA 15-4",[1]; clinical isolate MRSA 15-4,1 µg/mL
same,"Anti-bacterial activity (MIC), strain ECO+ 15-1",[2]; clinical isolate ECO+ 15-1,32 µg/mL
same,"Anti-bacterial activity (MIC), strain ECO+ 15-2",[2]; clinical isolate ECO+ 15-2,> 32 µg/mL
same,"Anti-bacterial activity (MIC), strain ECO+ 15-3",[2]; clinical isolate ECO+ 15-3,> 32 µg/mL
same,"Anti-bacterial activity (MIC), strain ECO+ 15-4",[2]; clinical isolate ECO+ 15-4,1 µg/mL
same,"Anti-bacterial activity (MIC), strain ECO− 15-1",[2]; clinical isolate ECO− 15-1,32 µg/mL
same,"Anti-bacterial activity (MIC), strain ECO− 15-2",[2]; clinical isolate ECO− 15-2,> 32 µg/mL
same,"Anti-bacterial activity (MIC), strain ECO− 15-3",[2]; clinical isolate ECO− 15-3,> 32 µg/mL
same,"Anti-bacterial activity (MIC), strain ECO− 15-4",[2]; clinical isolate ECO− 15-4,> 32 µg/mL
same,"Anti-bacterial activity (MIC), strain EFM 15-1",[3]; clinical isolate EFM 15-1,> 32 µg/mL
same,"Anti-bacterial activity (MIC), strain EFM 15-2",[3]; clinical isolate EFM 15-2,> 32 µg/mL
same,"Anti-bacterial activity (MIC), strain EFM 15-3",[3]; clinical isolate EFM 15-3,> 32 µg/mL
same,"Anti-bacterial activity (MIC), strain EFM 15-4",[3]; clinical isolate EFM 15-4,> 32 µg/mL
same,"Anti-bacterial activity (MIC), strain EFM 15-5",[3]; clinical isolate EFM 15-5,1 µg/mL
same,"Anti-bacterial activity (MIC), strain EFM 15-6",[3]; clinical isolate EFM 15-6,2 µg/mL
same,"Anti-bacterial activity (MIC), strain BCA 14-1",[4]; clinical isolate BCA 14-1,4 µg/mL
same,"Anti-bacterial activity (MIC), strain BCA 14-4",[4]; clinical isolate BCA 14-4,4 µg/mL
same,"Anti-bacterial activity (MIC), strain BCA 14-5",[4]; clinical isolate BCA 14-5,1 µg/mL
same,"Anti-bacterial activity (MIC), strain BCA 14-6",[4]; clinical isolate BCA 14-6,2 µg/mL
same,"Anti-bacterial activity (MIC), strain BCA 14-7",[4]; clinical isolate BCA 14-7,4 µg/mL
same,"Anti-bacterial activity (MIC), strain BCA 14-8",[4]; clinical isolate BCA 14-8,4 µg/mL
same,"Anti-bacterial activity (MIC), strain BCA 14-10",[4]; clinical isolate BCA 14-10,2 µg/mL
same,"Anti-bacterial activity (MIC), strain EFA 15-1",[5]; clinical isolate EFA 15-1,> 32 µg/mL
same,"Anti-bacterial activity (MIC), strain EFA 15-2",[5]; clinical isolate EFA 15-2,> 32 µg/mL
same,"Anti-bacterial activity (MIC), strain EFA 15-3",[5]; clinical isolate EFA 15-3,> 32 µg/mL
same,"Anti-bacterial activity (MIC), strain EFA 15-4",[5]; clinical isolate EFA 15-4,> 32 µg/mL
same,"Anti-bacterial activity (MIC), strain EFA 15-5",[5]; clinical isolate EFA 15-5,> 32 µg/mL
same,"Anti-bacterial activity (MIC), strain EFA 15-6",[5]; clinical isolate EFA 15-6,> 32 µg/mL
same,"Anti-bacterial activity (MIC), strain EFA 15-9",[5]; clinical isolate EFA 15-9,32 µg/mL
same,"Anti-bacterial activity (MIC), strain MSSA 15-3",[6]; clinical isolate MSSA 15-3,0.5 µg/mL
same,"Anti-bacterial activity (MIC), strain MSSA 15-4",[6]; clinical isolate MSSA 15-4,1 µg/mL
same,"Anti-bacterial activity (MIC), strain MSSA 15-5",[6]; clinical isolate MSSA 15-5,1 µg/mL
same,"Anti-bacterial activity (MIC), strain MSSA 15-6",[6]; clinical isolate MSSA 15-6,> 32 µg/mL
same,"Anti-bacterial activity (MIC), strain SPN 16-2",[7]; clinical isolate SPN 16-2,1 µg/mL
same,"Anti-bacterial activity (MIC), strain SPN 16-4",[7]; clinical isolate SPN 16-4,1 µg/mL
same,"Anti-bacterial activity (MIC), strain MRSE 15-1",[8]; clinical isolate MRSE 15-1,1 µg/mL
same,"Anti-bacterial activity (MIC), strain MRSE 15-2",[8]; clinical isolate MRSE 15-2,1 µg/mL
same,"Anti-bacterial activity (MIC), strain MRSE 15-3",[8]; clinical isolate MRSE 15-3,1 µg/mL
same,"Anti-bacterial activity (MIC), strain MRSE 15-7",[8]; clinical isolate MRSE 15-7,1 µg/mL
same,"Anti-bacterial activity (MIC), strain MSSE 15-3",[9]; clinical isolate MSSE 15-3,1 µg/mL
same,"Anti-bacterial activity (MIC), strain MSSE 15-4",[9]; clinical isolate MSSE 15-4,1 µg/mL
same,"Anti-bacterial activity (MIC), strain MSSE 15-5",[9]; clinical isolate MSSE 15-5,1 µg/mL
same,"Anti-bacterial activity (MIC), strain MSSE 15-6",[9]; clinical isolate MSSE 15-6,1 µg/mL
same,inhibition at 30 µM,[10],21%
